# Test results reported in ChEMBL document CHEMBL2073834, “Transport of temocaprilat into rat hepatocytes: role of organic anion transporting polypeptide” (J Pharmacol Exp Ther, 1998).
# Columns and labels:
# Assay type in all cases: functional, cell-based
# [1] = biological target: T1, Solute carrier organic anion transporter family member 1A1 (Rattus norvegicus, UniProt P46720); experiment: TP_TRANSPORTER: inhibition of Temocaprilat uptake (Temocaprilat: 0.1 uM, DBSB: 100 uM) in Oatp1-expressing COS-7 cells; conditions: monkey, cos-7, 100 µM
# T1 sequence (P46720 whole entry): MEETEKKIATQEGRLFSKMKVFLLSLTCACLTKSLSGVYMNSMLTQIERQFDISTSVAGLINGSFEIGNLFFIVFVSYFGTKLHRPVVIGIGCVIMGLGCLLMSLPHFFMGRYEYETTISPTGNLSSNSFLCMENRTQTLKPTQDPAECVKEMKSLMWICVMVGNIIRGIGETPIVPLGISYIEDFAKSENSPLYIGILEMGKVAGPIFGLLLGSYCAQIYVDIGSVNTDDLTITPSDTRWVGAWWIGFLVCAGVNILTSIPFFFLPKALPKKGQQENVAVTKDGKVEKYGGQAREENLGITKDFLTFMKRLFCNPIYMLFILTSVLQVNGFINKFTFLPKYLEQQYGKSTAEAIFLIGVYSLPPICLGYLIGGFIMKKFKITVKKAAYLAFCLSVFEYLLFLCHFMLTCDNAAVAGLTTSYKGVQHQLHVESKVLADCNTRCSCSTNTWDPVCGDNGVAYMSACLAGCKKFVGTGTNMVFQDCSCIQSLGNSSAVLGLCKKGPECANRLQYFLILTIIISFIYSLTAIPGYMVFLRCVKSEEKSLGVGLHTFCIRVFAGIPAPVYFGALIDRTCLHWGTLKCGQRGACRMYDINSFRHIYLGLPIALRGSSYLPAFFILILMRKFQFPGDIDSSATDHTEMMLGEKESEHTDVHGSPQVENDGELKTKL
# [2] = biological target: T1, Solute carrier organic anion transporter family member 1A1; experiment: TP_TRANSPORTER: inhibition of Temocaprilat uptake (Temocaprilat: 0.1 uM, E217betaG: 10 uM) in Oatp1-expressing COS-7 cells; conditions: monkey, cos-7, 10 µM
# [3] = substrate: C[C@]12CC[C@@H]3c4ccc(O)cc4CC[C@H]3[C@@H]1CC[C@@H]2O[C@@H]1O[C@H](C(=O)O)[C@@H](O)[C@H](O)[C@H]1O; experiment: (§1) TP_TRANSPORTER: uptake in Oatp1-expressing COS-7 cells
# [4] = substrate: O=C(O)CN1C[C@@H](c2cccs2)SC[C@H](N[C@@H](CCc2ccccc2)C(=O)O)C1=O; experiment: as §1
molecule,measurement,setting,value
O=C1OC(c2ccc(OS(=O)(=O)O)cc2)(c2ccc(OS(=O)(=O)O)cc2)c2c(Br)ccc(Br)c21 [DIBROMOSULFOPHTHALEIN],Activity,[1],inhibitor [(at a rough estimate) 5 % of control]
C[C@]12CC[C@@H]3c4ccc(O)cc4CC[C@H]3[C@@H]1CC[C@@H]2O[C@@H]1O[C@H](C(=O)O)[C@@H](O)[C@H](O)[C@H]1O [ESTRADIOL 17B GLUCURONIDE],Activity,[2],inhibitor [(at a rough estimate) 55 % of control]
Solute carrier organic anion transporter family member 1A1 (Rattus norvegicus) (protein) MEETEKKIATQEGRLFSKMKVFLLSLTCACLTKSLSGVYMNSMLTQIERQFDISTSVAGLINGSFEIGNLFFIVFVSYFGTKLHRPVVIGIGCVIMGLGCLLMSLPHFFMGRYEYETTISPTGNLSSNSFLCMENRTQTLKPTQDPAECVKEMKSLMWICVMVGNIIRGIGETPIVPLGISYIEDFAKSENSPLYIGILEMGKVAGPIFGLLLGSYCAQIYVDIGSVNTDDLTITPSDTRWVGAWWIGFLVCAGVNILTSIPFFFLPKALPKKGQQENVAVTKDGKVEKYGGQAREENLGITKDFLTFMKRLFCNPIYMLFILTSVLQVNGFINKFTFLPKYLEQQYGKSTAEAIFLIGVYSLPPICLGYLIGGFIMKKFKITVKKAAYLAFCLSVFEYLLFLCHFMLTCDNAAVAGLTTSYKGVQHQLHVESKVLADCNTRCSCSTNTWDPVCGDNGVAYMSACLAGCKKFVGTGTNMVFQDCSCIQSLGNSSAVLGLCKKGPECANRLQYFLILTIIISFIYSLTAIPGYMVFLRCVKSEEKSLGVGLHTFCIRVFAGIPAPVYFGALIDRTCLHWGTLKCGQRGACRMYDINSFRHIYLGLPIALRGSSYLPAFFILILMRKFQFPGDIDSSATDHTEMMLGEKESEHTDVHGSPQVENDGELKTKL,Km,[3],11 µM
same,Km,[4],46.7 µM
